This test deals with T1, ENDOG (Homo sapiens, UniProt Q14249).
T1 construct: endogenous in cells; host or cells: HL-60 (ATCC CCL-240)
T1 sequence (Q14249 49-297): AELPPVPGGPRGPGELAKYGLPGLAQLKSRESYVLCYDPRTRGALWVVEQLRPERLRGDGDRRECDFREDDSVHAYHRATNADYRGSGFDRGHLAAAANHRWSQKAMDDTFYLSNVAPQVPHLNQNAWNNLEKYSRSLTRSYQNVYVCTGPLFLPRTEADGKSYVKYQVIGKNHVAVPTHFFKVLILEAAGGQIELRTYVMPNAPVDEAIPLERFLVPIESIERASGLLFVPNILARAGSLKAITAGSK
Kind of test: TPP-CCR in living HL-60 cells. It is filed as cell-based.

Structures are written as SMILES.

As a reminder, the Hill slope is a measure of the steepness of the concentration-response curve.

In turn, `Cc1cnc(Nc2ccc(F)cc2Cl)nc1-c1c[nH]c(C(=O)N[C@H](CO)c2cccc(Cl)c2)c1` [ERK 11e] yielded a Hill slope (TPP-CCR, living cells, ENDOG) of 0.40. Also, the “Hill slope (ENDOG)” value (living HL-60 cells, […] °C, TMT-MS) turned out to be 0.40. Besides, for the setting “living HL-60 cells, […] °C, TMT-MS, read-out: pEC50 (ENDOG) (converted)”, the EC50 was 2.75 nM.

Values taken from article PMC9147192, “Small Molecule Arranged Thermal Proximity Coaggregation (smarTPCA)—A Novel Approach to Characterize Protein–Protein Interactions in Living Cells by Similar Isothermal Dose–Responses” (International Journal of Molecular Sciences, 2022).
